Drawing on PubChem BioAssay (NCI), this text covers GI50 and TGI for 15 compounds.

The structures appear in SMILES notation.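 Method: 48-hour compound exposure of cells in 96-well plates, five concentrations, linear interpolation of endpoints. At the GI50, growth is halved. At the TGI there is no net growth.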

Holding throughout (experiment): NCI-60 cell line screen, 48 h
In experiment [1] the test system is ACHN renal.
In experiment [2] the test system is IGROV1 ovarian.
Experiment [3] has as its system SNB-19 CNS.
Experiment [4] concerns SF-295 CNS.
Experiment [5] relates to SF-539 CNS.
In experiment [6] the test system is NCI-H460 lung.
The test system of experiment [7] is KM12 colon.
Experiment [8] has as its system HCT-116 colon.
Experiment [9] deals with HT29 colon.
Experiment [10] relates to MALME-3M melanoma.

In the case of `COc1ccc2c(c1)/C(=C\c1ccncc1)C(=O)N2`, the GI50 was 4.41 µM in experiment [1]; 4.15 µM in experiment [2]; 19.4 µM in experiment [3]; 15.7 µM in experiment [4]; 2.98 µM in experiment [5]; 6.68 µM in experiment [6]. The figures for the GI50 in experiment [7] and in experiment [8] were 4.83 µM and 3.72 µM, respectively. For the same compound, the TGI in [1] is 15.9 µM; in [2], 9.37 µM; in experiment [3], 61.1 µM; in [4] it was 72.8 µM; in experiment [5], 11.4 µM; in experiment [6], over 100 µM. Also, the TGI in experiment [7] is 24 µM; in [8] it was 17.8 µM.
For the compound `COc1ccc2c(c1)[n+](=O)c(C(=O)c1cccs1)c(C(F)(F)F)n2[O-]`, the GI50 was 8.64 µM in experiment [1]; 10.7 µM in experiment [3]; 2.89 µM in [4]; 5.1 µM in experiment [5]; 8.65 µM in experiment [9]; 1.68 µM in [6]. The GI50 in [7] was 3.96 µM; in experiment [8], 12.3 µM. In addition, the TGI in [1] was over 50 µM; in [3], over 50 µM; in experiment [4] it was 16.5 µM; in experiment [5], 16.2 µM; in experiment [9], over 50 µM; in experiment [6], 13.8 µM. The TGI in experiment [7] is 25.4 µM; in [8], over 50 µM.
On to `COC(C)(C)[C@@H](O)[C@H](O)C[C@H](C)C1=C2CC[C@@H]3[C@@]4(C)CC[C@@H](OC(C)=O)C(C)(C)[C@@H]4C[C@@H](OC4OC(COC(C)=O)C(O)C(O)C4O)[C@@]3(C)[C@]2(C)CC1` (some centres undefined), for which the GI50 in experiment [1] was 10.4 µM; in [2], 13.1 µM; in experiment [3] it was 12.2 µM; in experiment [4], 11.6 µM; in [9] it was 5.08 µM; in experiment [6] it was 9.06 µM. Further, the GI50 in experiment [7] was 3.55 µM; in experiment [8], 6.09 µM; in experiment [10] it was 15.2 µM. Also, the TGI in [1] stood at 22.2 µM; in [2] it was 26.2 µM; in experiment [3] it was 25.1 µM; in experiment [4], 24.1 µM; in experiment [9], 16.9 µM; in experiment [6], 25.5 µM. Further, the TGI was determined as 18.9 µM in experiment [7], 19.2 µM in [8] and 29.4 µM in experiment [10].
`COc1ccc(-c2cc(=O)n(-c3nc4ccccc4[nH]3)[nH]2)cc1OC`: the GI50 in experiment [1] is 5.72 µM; in [2], 6.08 µM; in experiment [3], 7.06 µM; in [4], 1.3 µM; in [5], 6.36 µM; in experiment [9], 30.5 µM. For the same compound, the GI50 was 3.91 µM in experiment [6], 8.56 µM in [7] and 5.83 µM in experiment [8]. The TGI was over 100 µM in experiment [1]; 76.2 µM in [2]; over 100 µM in [3]; 4.82 µM in experiment [4]; 48.9 µM in experiment [5]; over 100 µM in experiment [9]. Moreover, the TGI was 68.3 µM in experiment [6], over 100 µM in [7] and over 100 µM in experiment [8].
On to `O=c1cc(-c2ccccn2)[nH]c2cccc(F)c12`, for which the TGI in experiment [1], in experiment [2], in [3], in experiment [4], in [5] and in experiment [9] was over 100 µM in each case. Further, the TGI in experiment [6] and in experiment [7] was over 100 µM each time.
For `O=C(Oc1cccc(Cl)c1)c1ccccc1Nc1ccnc(C(F)(F)F)c1`, the GI50 in [2] was 15.2 µM; in experiment [4] it was 18.3 µM; in experiment [5] it was 2.79 µM; in [6] it was 11.2 µM; in experiment [7], 9.53 µM; in [8] it was 1.63 µM. The TGI is over 100 µM in experiment [2]; 45.5 µM in experiment [4]; 7.24 µM in experiment [5]; 43.7 µM in [6]; 41.4 µM in [7]; 3.45 µM in experiment [8].
As to `COc1cc2c(cc1OC)-c1ncc3c(OC)ccc(OC)c3c1C2`, the GI50 in experiment [1] is 24 µM; in experiment [2] it was 13.9 µM; in experiment [3], 42.3 µM; in [4], 12.1 µM; in experiment [5] it was 14 µM; in experiment [6], 20.9 µM. The GI50 is 16.5 µM in [7] and 17.8 µM in experiment [8]. Besides, the TGI in experiment [1] is over 100 µM; in [2], 48.5 µM; in experiment [3], over 100 µM; in experiment [4], 42.7 µM; in experiment [5], 33.4 µM; in experiment [6], over 100 µM. Also, the TGI in [7] was 83.7 µM; in [8], over 100 µM.
With `O=C(O)C(Cc1cnc[nH]1)N1C(=O)c2ccccc2C1=O` (centres undefined), the TGI was over 100 µM in [1]; over 100 µM in [2]; over 100 µM in experiment [3]; 98.5 µM in experiment [4]; over 100 µM in experiment [9]; over 100 µM in [6]. The TGI in experiment [7], in experiment [8] and in experiment [10] was over 100 µM in each case.
On to `CCCn1c2c(c3c(O)cccc31)C(=O)c1ccccc1-2`, for which the GI50 was 14.9 µM in experiment [1]; 10.9 µM in [2]; 25.5 µM in [3]; 23 µM in [4]; 29.7 µM in experiment [9]; 22.1 µM in [6]. Moreover, the GI50 in experiment [8] was 29.2 µM; in experiment [10] it was 64.6 µM. Moreover, the TGI in experiment [1] was 45.1 µM; in [2], over 100 µM; in [3] it was over 100 µM; in experiment [4] it was 67.8 µM; in [9], over 100 µM; in experiment [6], over 100 µM. Also, the TGI in experiment [8] and in experiment [10] was over 100 µM each time.
For `CCCCCCCCCCCC1=NC(C)(C)CN1C(C)(C)CO`, the GI50 in experiment [1] is 3.01 µM; in experiment [3], 5.15 µM; in [4], 2.04 µM; in [5], 1.85 µM; in [9], 1.92 µM; in [6], 1.55 µM. In addition, the GI50 in experiment [7] was 1.72 µM; in experiment [8], 1.56 µM. Besides, the TGI in [1] was 10 µM; in experiment [3], 20.2 µM; in [4], 4.29 µM; in experiment [5], 3.51 µM; in [9] it was 4.1 µM; in [6], 2.91 µM. For the same compound, the results for the TGI in experiment [7] and in experiment [8] were 3.14 µM and 3.06 µM, respectively.
In the case of `CN1C(=O)c2ccc3ccccc3c2C1=O`, the TGI in experiment [1], in experiment [2], in experiment [3], in experiment [4], in experiment [5] and in experiment [9] was over 100 µM each time. For the same compound, the TGI in experiment [6], in experiment [7] and in experiment [8] was over 100 µM throughout.
On to `Cc1ccc(/C=C(\C#N)c2cc3ccccc3n2C)cc1`, for which the GI50 is 0.783 µM in experiment [1]; 0.544 µM in experiment [2]; 0.414 µM in [3]; 0.285 µM in [4]; 0.294 µM in [5]; 0.356 µM in [9]. Besides, the GI50 in experiment [6] was 0.361 µM; in [7], 0.428 µM; in [8] it was 0.361 µM. For the same compound, the TGI in [1] is over 100 µM; in experiment [2], over 100 µM; in [3] it was over 100 µM; in [4] it was 1.46 µM; in experiment [5], 1.02 µM; in [9], over 100 µM. Besides, the TGI in experiment [6], in [7] and in experiment [8] was over 100 µM in each case.
As for `Cc1cn2c(/C=C3/C(=O)Nc4c3ccc3ccccc43)c(C(F)(F)F)nc2s1`, the GI50 in [1] was 6.24 µM; in [3], 2.97 µM; in experiment [4], 0.494 µM; in [5] it was 1.14 µM; in [9] it was 0.396 µM; in experiment [6] it was 0.501 µM. Moreover, the GI50 in experiment [7] was 0.493 µM; in [8] it was 2.19 µM. Also, the TGI in [1] is over 100 µM; in [3], over 100 µM; in experiment [4] it was over 100 µM; in experiment [5], 5.07 µM; in experiment [9], 14.2 µM; in experiment [6] it was 25.3 µM. Moreover, the TGI is 38.5 µM in [7] and over 100 µM in [8].
In the case of `C=CC(=O)N1C/C(=C\c2ccc(Cl)c(Cl)c2)C(=O)/C(=C/c2ccc(Cl)c(Cl)c2)C1`, the TGI in experiment [1] is 0.343 µM; in experiment [2], 0.263 µM; in [4], 0.891 µM; in experiment [5], 0.367 µM; in experiment [9] it was 0.323 µM; in [6], 0.298 µM. In addition, the TGI worked out at 0.642 µM in experiment [7] and 0.188 µM in experiment [8].
Consider `COC1C(OC(=O)c2ccc(C)[nH]2)C(O)C(Oc2ccc3c(O)c(NC(=O)c4c[nH]c(C(=O)Nc5c(O)c6ccc(OC7OC(C)(C)C(OC)C(OC(=O)c8ccc(C)[nH]8)C7O)c(C)c6oc5=O)c4C)c(=O)oc3c2C)OC1(C)C` (centres undefined), for which the TGI is 9.43 µM in [1]; 3.62 µM in experiment [2]; 6.1 µM in experiment [3]; over 100 µM in [4]; 16.1 µM in [9]; 6.62 µM in experiment [6]. For the same compound, the TGI came to 8.89 µM in [7] and 5.02 µM in experiment [10].
